Experimental findings from ChEMBL document CHEMBL1134706, “Novel cytotoxic 7-iminomethyl and 7-aminomethyl derivatives of camptothecin” (Bioorg Med Chem Lett, 2001) are described below.

In one data set the test system is NCI-H460. The data set is described as follows: In vitro cytotoxicity against H460 a human non-small lung carcinoma cell line after 1 hour drug exposure. In kind it is functional, cell-based. The note with it: NCI-H460, 1 h.
Data set [1] in a line: Partition coefficient (logP). In kind it is physicochemical. The note with it: octanol/water.
Data set [2] in a line: In vivo antitumor activity in NSCLC H460 xenografted sc in athymic nude mice expressed as percent tumor volume inhibition (TVI) at a dose of 2 mg/kg perorally for q4dx4. The note with it: route oral. In kind it is functional, Mus musculus.
The nature of data set [3]: In vivo antitumor activity in NSCLC H460 xenografted sc in athymic nude mice expressed as percent Tumor volume inhibition (TVI) at a dose of 6 mg/kg perorally for q4dx4. In kind it is functional, Mus musculus. To be noted: route oral.
A short description of data set [4]: In vivo antitumor activity in NSCLC H460 xenografted sc in athymic nude mice expressed as percent Tumor volume inhibition (TVI) at a dose of 18 mg/kg perorally for q4dx4. In kind it is functional, Mus musculus. To be noted: route oral.
Data set [5] in a line: In vivo antitumor activity in NSCLC H460 xenografted sc in athymic nude mice expressed as percent Body weight loss (BWL) at a dose of 2 mg/kg orally for q4dx4. In kind it is functional, Mus musculus. The note with it: route oral.
Data set [6] is described as follows: In vivo antitumor activity in NSCLC H460 xenografted sc in athymic nude mice expressed as percent Body weight loss (BWL) at a dose of 18 mg/kg orally for q4dx4. In kind it is functional, Mus musculus. To be noted: route oral.
A short description of data set [7]: In vivo antitumor activity in NSCLC H460 xenografted sc in athymic nude mice expressed as percent Body weight loss (BWL) at a dose of 6 mg/kg orally for q4dx4. In kind it is functional, Mus musculus. The note with it: route oral.
Data set [8] is described as follows: In vivo antitumor activity in NSCLC H460 xenografted sc in athymic nude mice expressed as percent Body weight loss (BWL) at a dose of 15 mg/kg orally for q4dx4. In kind it is functional, Mus musculus. To be noted: route oral.
A short description of data set [9]: In vivo antitumor activity in NSCLC H460 xenografted sc in athymic nude mice expressed as percent tumor volume inhibition (TVI) at a dose of 15 mg/kg perorally for q4dx4. The note with it: route oral. In kind it is functional, Mus musculus.

Broadly, the IC50 is the concentration that inhibits the measured activity by half. Low readings indicate greater potency, high ones weaker potency. A word on the logP: it is a log measure of how a compound divides between an organic and an aqueous phase. A high value points to higher lipophilicity.

The compound `CC[C@@]1(O)C(=O)OCc2c1cc1n(c2=O)Cc2c-1nc1ccccc1c2/C=N/c1ccc([N+](=O)[O-])cc1` had an IC50 in the data set on NCI-H460 of 280 nM. This compound registered a logP in data set [1] of 2.34.

In turn, `CC[C@@]1(O)C(=O)OCc2c1cc1n(c2=O)Cc2c-1nc1ccccc1c2/C=N/CCN(C)C` had an IC50 with NCI-H460 of 120 nM. Moreover, in data set [1], the logP amounted to 1.53.

With `CC[C@@]1(O)C(=O)OCc2c1cc1n(c2=O)Cc2c-1nc1ccccc1c2/C=N/CCCCO`, the IC50 in the data set with NCI-H460 stood at 360 nM. Moreover, in [1], the logP was found to be 1.57.

For `CC[C@@]1(O)C(=O)OCc2c1cc1n(c2=O)Cc2c-1nc1ccccc1c2CNCCN(C)C`, the IC50 in the data set with NCI-H460 amounted to 450 nM. In data set [1], the logP amounted to 0.89.

In the data set with NCI-H460, `CC[C@@]1(O)C(=O)OCc2c1cc1n(c2=O)Cc2c-1nc1ccccc1c2CN=C(N)N` came in with an IC50 of 12600 nM. For the same compound, the logP in [1] is -0.79.

Compound `CC[C@@]1(O)C(=O)OCc2c1cc1n(c2=O)Cc2c-1nc1ccccc1c2/C=N/C1CCCCC1` showed a half-maximal inhibitory concentration (IC50) with NCI-H460 of 370 nM. In [1], this compound gave a logP of 3.08.

Turning to `CC[C@@]1(O)C(=O)OCc2c1cc1n(c2=O)Cc2c-1nc1ccccc1c2/C=N/c1ccccc1`, in the data set with NCI-H460, inhibition was half-maximal at 130 nM (IC50). Moreover, the values for the TVI in data set [2], in [3] and in [4] were 33%, 51% and 89%, respectively. Further, the BWL amounted to 2% in [5], 1% in data set [6] and 7% in data set [7]. The logP in data set [1] came to 3.19.

In the data set on NCI-H460, `CC[C@@]1(O)C(=O)OCc2c1cc1n(c2=O)Cc2c-1nc1ccccc1c2CN` showed an IC50 of 2370 nM. The same compound showed a logP in data set [1] of 0.37.

Turning to `CC[C@@]1(O)C(=O)OCc2c1cc1n(c2=O)Cc2c-1nc1ccccc1c2/C=N/Cc1ccccc1`, half-maximal inhibition with NCI-H460 (IC50) required 280 nM. In data set [1], the logP is 3.26.

`CC[C@@]1(O)C(=O)OCc2c1cc1n(c2=O)Cc2c-1nc1ccccc1c2/C=N/N=C(N)N` gave an IC50 in the data set with NCI-H460 of 39300 nM. Moreover, the logP in data set [1] was determined as 0.67.

The compound `CC[C@@]1(O)C(=O)OCc2c1cc1n(c2=O)Cc2c-1nc1ccccc1c2CNc1ccccc1` showed an IC50 in the data set on NCI-H460 of 310 nM. In addition, in [1], the logP was determined as 2.56.

`CC[C@@]1(O)C(=O)OCc2c1cc1n(c2=O)Cc2c-1nc1ccccc1c2CNC1CCCCC1`: half-maximal inhibition with NCI-H460 (IC50) required 350 nM. This compound also showed a lipophilicity (logP) in [1] of 2.44.

`CC[C@@]1(O)C(=O)OCc2c1cc1n(c2=O)Cc2cc3c(CN(C)C)c(O)ccc3nc2-1` [TOPOTECAN]: in data set [8], the BWL stood at 12%. This compound yielded an IC50 in the data set with NCI-H460 of 1380 nM. This compound showed a TVI in data set [9] of 95%.
